Counter-ions that a name gives are not always drawn.
Test system: Human platelet aggregation caused by ADP
Assay: Inhibition of ADP-induced platelet aggregation (Mimic-human PRP)
Type: cell-based
Conditions: 20 μM ADP, human platelet concentrate diluted with PPP, absorption at 595 nm
Procedure: Platelet Preparation for Aggregation Studies
Human platelet aggregation reaction test is a functional experiment method to verify whether a test compound is an agonist or an antagonist to ADP receptor. […] The platelet product isolated from whole blood was purchased from Chung-Nam blood center (Dae-joen, South Korea). The platelet was isolated from 400 mL of whole blood containing 56 mL of CPDA-1 anticoagulant. To isolate the platelet product, 400 mL of whole blood was centrifuged at 260×g for 5 minutes, and then obtained PRP (platelet rich plasma) was secondary centrifuged at 370×g for 6 minutes. Platelet pellet (10^9/mL) was suspended with 45 mL of plasma and then agitated over 1 hour at 22° C. blood reservoir to stabilize it. The stabilized platelet product was used in the experiment within 24 hours. PCs (Platelet Concentrates) were gently transferred to a new 50 ml-falcon tube. The number of platelet was counted by using animal blood counter (ABC Vet, ABX diagnostics, France). The volume of 30 mL of PCs collected from same donor was centrifuged at 1500 g for 10 min at room temperature to prepare platelet-poor plasma (PPP). The platelet count was adjusted to platelet number of 3˜4×10^8/mL by diluting with PPP.
Evaluation on Inhibitory Effect of ADP-Induced Aggregation
Inhibition of ADP-induced aggregation was determined in 96-well flat-bottom plates (Costar, USA) at room temperature. The diluted platelet was aliquoted into each well of 96 well plate in the volume of 188 μl. […] The platelet including test compounds was immediately mixed on a shaker at 1050 rpm for 1 min and incubated at room temperature for 20 min. Then, 10 μL volume of 400 μM ADP was added: the final concentration of 20 μM ADP in the total reaction volume of 0.2 mL/well. After shaking of the plate at room temperature for 3 min, the absorption of the samples was determined at 595 nm using a microtiter plate reader (Softmax, Molecular Devices).
A dose-dependent curve on serial dilutions of ADP was accomplished by adding vehicle (DMSO) instead of antagonists in order to calculate EC50 of ADP. Inhibition of aggregation was calculated from the increase of absorption at 595 nm at 3 min of the reaction incubation, compared to results of absorption between the 0 and 20 μM ADP control without antagonists. Sigmoidal dose-response curves and Ki were derived by non-linear regression analysis using the Prism software (GraphPad, San Diego Calif.).

SMILES | Ki
CCCc1cc2c(N3CCn4c(nnc4C(F)(F)F)C3)nc(N3CCC(NC(C)=O)CC3)nc2s1 [Example 7-12, Hydrochloric acid salt of N-{1-[6-Propyl-4-(3-trifluoromethyl-5,6-dihydro-8H-[1,2,4]triazolo[4,3-a]pyrazin-7-yl)-thieno[2,3-d]pyrimidin-2-yl]-piperidin-4-yl}-acetamide] | 35 nM
CCCC(=O)NC1CCN(c2nc(N3CCn4c(nnc4C(F)(F)F)C3)c3cc(CCC)sc3n2)CC1 [Example 7-13, Hydrochloric acid salt of N-{1-[6-Propyl-4-(3-trifluoromethyl-5,6-dihydro-8H-[1,2,4]triazolo[4,3-a]pyrazin-7-yl)-thieno[2,3-d]pyrimidin-2-yl]-piperidin-4-yl}-butyramide] | 76 nM
CCCc1cc2c(N3CCn4c(nnc4C(F)(F)F)C3)nc(N3CCC(NC(=O)C(C)C)CC3)nc2s1 [Example 7-14, Hydrochloric acid salt of N-{1-[6-Propyl-4-(3-trifluoromethyl-5,6-dihydro-8H-[1,2,4]triazolo[4,3-a]pyrazin-7-yl)-thieno[2,3-d]pyrimidin-2-yl]-piperidin-4-yl}-isobutyramide] | 120 nM
CCCC(=O)N1CCN(c2nc(N3CCn4c(nnc4C(F)(F)F)C3)c3cc(CCC)sc3n2)CC1 [Example 7-15, Hydrochloric acid salt of 1-{4-[6-Propyl-4-(3-trifluoromethyl-5,6-dihydro-8H-[1,2,4]triazolo[4,3-a]pyrazin-7-yl)-thieno[2,3-d]pyrimidin-2-yl]-piperazin-1-yl}-butan-1-one] | 600 nM
CCCc1cc2c(N3CCn4c(nnc4C(F)(F)F)C3)nc(N3CCN(C(=O)C(C)C)CC3)nc2s1 [Example 7-16, Hydrochloric acid salt of 2-Methyl-1-{4-[6-propyl-4-(3-trifluoromethyl-5,6-dihydro-8H-[1,2,4]triazolo[4,3-a]pyrazin-7-yl)-thieno[2,3-d]pyrimidin-2-yl]-piperazin-1-yl}-propan-1-one] | 590 nM
CCCc1cc2c(N3CCn4c(nnc4C(F)(F)F)C3)nc(N3CC(O)C(NC(C)=O)C3)nc2s1 (stereo not shown) [Example 7-17, N-{4-Hydroxy-1-[6-propyl-4-(3-trifluoromethyl-5,6-dihydro-8H-[1,2,4]triazolo[4,3-a]pyrazin-7-yl)-thieno[2,3-d]pyrimidin-2-yl]-pyrrolidin-3-yl}-acetamide] | 2.8 nM
CCCc1cc2c(N3CCn4c(nnc4C(F)(F)F)C3)nc(N3CC(NC(C)=O)C(OC(C)=O)C3)nc2s1 (stereo not shown) [Example 7-18, Acetic acid 4-acetylamino-1-[6-propyl-4-(3-trifluoromethyl-5,6-dihydro-8H-[1,2,4]triazolo[4,3-a]pyrazin-7-yl)-thieno[2,3-d]pyrimidin-2-yl]-pyrrolidin-3-yl ester] | 6.5 nM
CCCC(=O)NC1CN(c2nc(N3CCn4c(nnc4C(F)(F)F)C3)c3cc(CCC)sc3n2)CC1O (stereo not shown) [Example 7-19, N-{4-Hydroxy-1-[6-propyl-4-(3-trifluoromethyl-5,6-dihydro-8H-[1,2,4]triazolo[4,3-a]pyrazin-7-yl)-thieno[2,3-d]pyrimidin-2-yl]-pyrrolidin-3-yl}-butyramide] | 5 nM
CCCc1cc2c(N3CCn4c(nnc4C(F)(F)F)C3)nc(N3CC(O)C(NC(=O)C(C)C)C3)nc2s1 (stereo not shown) [Example 7-20, N-{4-Hydroxy-1-[6-propyl-4-(3-trifluoromethyl-5,6-dihydro-8H-[1,2,4]triazolo[4,3-a]pyrazin-7-yl)-thieno[2,3-d]pyrimidin-2-yl]-pyrrolidin-3-yl}-isobutyramide] | 4.8 nM
CCCc1cc2c(N3CCn4c(nnc4C(F)(F)F)C3)nc(N3CC(O)C(NC(=O)C(C)(C)C)C3)nc2s1 (stereo not shown) [Example 7-21, N-{4-Hydroxy-1-[6-propyl-4-(3-trifluoromethyl-5,6-dihydro-8H-[1,2,4]triazolo[4,3-a]pyrazin-7-yl)-thieno[2,3-d]pyrimidin-2-yl]-pyrrolidin-3-yl}-2,2-dimethyl-propionamide] | 21 nM
CCCc1cc2c(N3CCn4c(nnc4C(F)(F)F)C3)nc(N3CC(O)C(NC(=O)CO)C3)nc2s1 (stereo not shown) [Example 7-22, 2-Hydroxy-N-{4-hydroxy-1-[6-propyl-4-(3-trifluoromethyl-5,6-dihydro-8H-[1,2,4]triazolo[4,3-a]pyrazin-7-yl)-thieno[2,3-d]pyrimidin-2-yl]-pyrrolidin-3-yl}-acetamide] | 4 nM
CCCc1cc2c(N3CCn4c(nnc4C(F)(F)F)C3)nc(N3CC(O)C(NC(=O)C(C)(C)O)C3)nc2s1 (stereo not shown) [Example 7-23, 2-Hydroxy-N-{4-hydroxy-1-[6-propyl-4-(3-trifluoromethyl-5,6-dihydro-8H-[1,2,4]triazolo[4,3-a]pyrazin-7-yl)-thieno[2,3-d]pyrimidin-2-yl]-pyrrolidin-3-yl}-2-methyl-propionamide] | 12 nM
CCCc1cc2c(N3CCn4c(nnc4C(F)(F)F)C3)nc(N3CC(O)C(NC(=O)C(C)(CO)CO)C3)nc2s1 (stereo not shown) [Example 7-24, 3-Hydroxy-2-hydroxymethyl-N-{4-hydroxy-1-[6-propyl-4-(3-trifluoromethyl-5,6-dihydro-8H-[1,2,4]triazolo[4,3-a]pyrazin-7-yl)-thieno[2,3-d]pyrimidin-2-yl]-pyrrolidin-3-yl}-2-methyl-propionamide] | 15 nM
CCCc1cc2c(N3CCn4c(nnc4C(F)(F)F)C3)nc(N3CC(O)C(NC(=O)C(C)(C)CO)C3)nc2s1 (stereo not shown) [Example 7-25, 3-Hydroxy-N-{4-hydroxy-1-[6-propyl-4-(3-trifluoromethyl-5,6-dihydro-8H-[1,2,4]triazolo[4,3-a]pyrazin-7-yl)-thieno[2,3-d]pyrimidin-2-yl]-pyrrolidin-3-yl}-2,2-dimethyl-propionamide] | 18 nM
CCCc1cc2c(N3CCn4c(nnc4C(F)(F)F)C3)nc(N3CC4OC(=O)N[C@H]4C3)nc2s1 (stereo partly drawn) [Example 7-26, (S)-5-[6-Propyl-4-(3-trifluoromethyl-5,6-dihydro-8H-[1,2,4]triazolo[4,3-a]pyrazin-7-yl)-thieno[2,3-d]pyrimidin-2-yl]-hexahydro-pyrrolo[3,4-d]oxazol-2-one] | 2.1 nM
CCCc1cc2c(N3CCn4c(nnc4C(F)(F)F)C3)nc(N3CC(N)C(N)C3)nc2s1 (stereo not shown) [Example 7-27, Di-hydrochloric acid salt of 1-[6-Propyl-4-(3-trifluoromethyl-5,6-dihydro-8H-[1,2,4]triazolo[4,3-a]pyrazin-7-yl)-thieno[2,3-d]pyrimidin-2-yl]-pyrrolidine-3,4-diamine] | 17 nM
CCCc1cc2c(N3CCn4c(nnc4C(F)(F)F)C3)nc(N3CC(NC(C)=O)C(NC(C)=O)C3)nc2s1 (stereo not shown) [Example 7-28, N-{4-Acetylamino-1-[6-propyl-4-(3-trifluoromethyl-5,6-dihydro-8H-[1,2,4]triazolo[4,3-a]pyrazin-7-yl)-thieno[2,3-d]pyrimidin-2-yl]-pyrrolidin-3-yl}-acetamide] | 42 nM
CCCc1cc2c(N3CCn4c(nnc4C(F)(F)F)C3)nc(OCCNC(C)=O)nc2s1 [Example 7-29, N-{2-[6-Propyl-4-(3-trifluoromethyl-5,6-dihydro-8H-[1,2,4]triazolo[4,3-a]pyrazin-7-yl)-thieno[2,3-d]pyrimidin-2-yloxy]-ethyl}-acetamide] | 3.1 nM
CCCC(=O)NCCOc1nc(N2CCn3c(nnc3C(F)(F)F)C2)c2cc(CCC)sc2n1 [Example 7-30, N-{2-[6-Propyl-4-(3-trifluoromethyl-5,6-dihydro-8H-[1,2,4]triazolo[4,3-a]pyrazin-7-yl)-thieno[2,3-d]pyrimidin-2-yloxy]-ethyl}-butyramide] | 7.2 nM
CCCc1cc2c(N3CCn4c(nnc4C(F)(F)F)C3)nc(OCCNC(=O)C(C)C)nc2s1 [Example 7-31, N-{2-[6-Propyl-4-(3-trifluoromethyl-5,6-dihydro-8H-[1,2,4]triazolo[4,3-a]pyrazin-7-yl)-thieno[2,3-d]pyrimidin-2-yloxy]-ethyl}-isobutyramide] | 12 nM
CCCc1cc2c(N3CCn4c(nnc4C(F)(F)F)C3)nc(OCCNC(=O)CO)nc2s1 [Example 7-32, 2-Hydroxy-N-{2-[6-propyl-4-(3-trifluoromethyl-5,6-dihydro-8H-[1,2,4]triazolo[4,3-a]pyrazin-7-yl)-thieno[2,3-d]pyrimidin-2-yloxy]-ethyl}-acetamide] | 0.8 nM
CCCc1cc2c(N3CCn4c(nnc4C(F)(F)F)C3)nc(OCCNC(=O)C(C)(C)O)nc2s1 [Example 7-33, 2-Hydroxy-2-methyl-N-{2-[6-propyl-4-(3-trifluoromethyl-5,6-dihydro-8H-[1,2,4]triazolo[4,3-a]pyrazin-7-yl)-thieno[2,3-d]pyrimidin-2-yloxy]-ethyl}-propionamide] | 6.7 nM

From patent US20110166121A1 (LG LIFE SCIENCES LTD., priority 2008, published 2011)
